Laboratory results as given in ChEMBL document CHEMBL1201862, “PubChem BioAssay data set” (2004).
Each block holds one compound with its values, some of them ahead of it. The source made the active and inactive calls.

What was measured:
[1] = biological target: T1, Tyrosine-protein phosphatase non-receptor type 7 (Homo sapiens, UniProt P35236); test: SAR analysis of chemical inhibitors of HePTP using a Fluorescent assay - Set 2. [Related pubchem assays (depositor defined):AID1059, AID1077, AID1661, AID2085, AID521]; assay type: functional
T1 sequence (P35236 whole entry): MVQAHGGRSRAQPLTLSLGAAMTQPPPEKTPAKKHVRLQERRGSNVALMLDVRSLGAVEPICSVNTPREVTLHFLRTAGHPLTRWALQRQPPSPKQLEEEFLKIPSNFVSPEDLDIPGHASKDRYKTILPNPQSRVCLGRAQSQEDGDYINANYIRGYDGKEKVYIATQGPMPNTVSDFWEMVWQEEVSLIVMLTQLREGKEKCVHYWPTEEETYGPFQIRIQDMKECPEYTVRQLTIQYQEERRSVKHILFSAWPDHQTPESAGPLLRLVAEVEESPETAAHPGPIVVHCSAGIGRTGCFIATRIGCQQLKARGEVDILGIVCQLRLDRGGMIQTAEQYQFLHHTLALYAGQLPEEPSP

[2] = biological target: T2, G-protein coupled receptor 55 (Homo sapiens, UniProt Q9Y2T6); test: SAR analysis of selective Agonists of GPR55 using an Image-Based Assay. [Related pubchem assays (depositor defined):AID1961, AID1965]; assay type: functional
T2 sequence (Q9Y2T6 whole entry): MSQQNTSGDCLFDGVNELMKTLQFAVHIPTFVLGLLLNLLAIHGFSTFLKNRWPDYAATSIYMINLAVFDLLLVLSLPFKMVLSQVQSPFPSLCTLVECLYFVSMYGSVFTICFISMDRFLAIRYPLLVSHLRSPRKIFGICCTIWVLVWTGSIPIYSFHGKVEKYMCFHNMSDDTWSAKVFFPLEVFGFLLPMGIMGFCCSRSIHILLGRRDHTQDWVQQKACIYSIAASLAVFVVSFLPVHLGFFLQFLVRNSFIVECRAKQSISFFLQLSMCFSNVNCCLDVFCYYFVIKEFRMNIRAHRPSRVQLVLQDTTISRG

[3] = biological target: T3, Cannabinoid receptor 2 (Homo sapiens, UniProt P34972); test: SAR analysis of antagonists of the Cannabinoid Receptor 2 using an Image-Based Assay - Set 2. [Related pubchem assays (depositor defined):AID1961, AID1965]; assay type: functional
T3 sequence (P34972 whole entry): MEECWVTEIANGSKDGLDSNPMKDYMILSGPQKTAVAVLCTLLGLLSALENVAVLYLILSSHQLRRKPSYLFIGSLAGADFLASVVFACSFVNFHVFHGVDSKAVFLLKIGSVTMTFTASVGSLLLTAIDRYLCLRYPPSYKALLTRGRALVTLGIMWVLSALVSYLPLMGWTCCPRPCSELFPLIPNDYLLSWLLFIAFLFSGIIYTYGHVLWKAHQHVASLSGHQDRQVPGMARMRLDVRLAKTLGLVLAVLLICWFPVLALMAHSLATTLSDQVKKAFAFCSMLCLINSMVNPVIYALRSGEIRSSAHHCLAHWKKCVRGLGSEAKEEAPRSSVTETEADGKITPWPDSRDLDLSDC

[4] = biological target: T3, Cannabinoid receptor 2; test: SAR analysis of agonists of the Cannabinoid Receptor 2 using an Image-Based Assay - Set 2. [Related pubchem assays (depositor defined):AID1961, AID1965]; assay type: functional
[5] = biological target: Dual specificity protein phosphatase 3 (Homo sapiens, UniProt P51452); test: SAR VHR1 Fluorescent Assay for In Vitro dose response studies Set 2. [Related pubchem assays (depositor defined):AID1654, AID1661, AID1878]; assay type: functional
[6] = biological target: T2, G-protein coupled receptor 55; test: GPR55 agonists via beta-arrestin recruitment, primary screen, imaging, U2OS cells, beta-arrestin-GFP redistribution (AID 1961); assay type: functional
[7] = biological target: Cannabinoid receptor 1 (Homo sapiens, UniProt P21554); test: SAR analysis of antagonists of the Cannabinoid Receptor 1 using an Image-Based Assay. [Related pubchem assays (depositor defined):AID1961, AID1965]; assay type: functional
Cannabinoid receptor 1, sequence (P21554 whole entry): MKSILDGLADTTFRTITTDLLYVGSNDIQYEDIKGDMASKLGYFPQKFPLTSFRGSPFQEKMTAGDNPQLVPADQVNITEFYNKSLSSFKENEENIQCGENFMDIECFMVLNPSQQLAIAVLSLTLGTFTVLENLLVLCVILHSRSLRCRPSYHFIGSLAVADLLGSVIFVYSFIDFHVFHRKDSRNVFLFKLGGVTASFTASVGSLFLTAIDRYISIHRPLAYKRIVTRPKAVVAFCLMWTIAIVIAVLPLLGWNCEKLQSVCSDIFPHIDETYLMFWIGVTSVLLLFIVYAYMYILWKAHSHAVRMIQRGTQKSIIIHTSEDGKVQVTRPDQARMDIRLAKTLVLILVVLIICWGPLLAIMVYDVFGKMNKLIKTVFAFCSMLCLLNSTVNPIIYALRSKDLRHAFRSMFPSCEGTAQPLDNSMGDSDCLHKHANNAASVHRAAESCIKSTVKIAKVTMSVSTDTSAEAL

[8] = biological target: T4, Kappa-type opioid receptor (Homo sapiens, UniProt P41145); test: SAR analysis of small molecule agonists of the kappa opioid receptor via a luminescent beta-arrestin assay - Set 3. [Related pubchem assays (depositor defined):AID1777, AID1785, AID1786, AID1966, AID2133, AID2136, AID2284, AID2500]; assay type: functional
T4 sequence (P41145 whole entry): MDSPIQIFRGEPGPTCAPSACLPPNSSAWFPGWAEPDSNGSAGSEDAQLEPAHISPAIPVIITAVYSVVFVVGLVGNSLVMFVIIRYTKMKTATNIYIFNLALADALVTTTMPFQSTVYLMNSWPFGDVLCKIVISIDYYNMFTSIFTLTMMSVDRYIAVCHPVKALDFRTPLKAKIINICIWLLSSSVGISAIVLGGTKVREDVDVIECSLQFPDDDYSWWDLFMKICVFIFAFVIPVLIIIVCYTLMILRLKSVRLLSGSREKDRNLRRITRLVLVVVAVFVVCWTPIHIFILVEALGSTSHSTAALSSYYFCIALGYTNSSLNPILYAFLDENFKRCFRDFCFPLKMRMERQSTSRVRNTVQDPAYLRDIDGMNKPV

[9] = biological target: Mu-type opioid receptor (Homo sapiens, UniProt P35372); test: SAR Analysis of Agonists of the MOR Receptor using an Image-Based Assay - Set 3. [Related pubchem assays (depositor defined):AID1777, AID1785, AID1786, AID1966, AID2133, AID2136, AID2284, AID2285, AID2352]; assay type: functional
Mu-type opioid receptor, sequence (P35372 whole entry): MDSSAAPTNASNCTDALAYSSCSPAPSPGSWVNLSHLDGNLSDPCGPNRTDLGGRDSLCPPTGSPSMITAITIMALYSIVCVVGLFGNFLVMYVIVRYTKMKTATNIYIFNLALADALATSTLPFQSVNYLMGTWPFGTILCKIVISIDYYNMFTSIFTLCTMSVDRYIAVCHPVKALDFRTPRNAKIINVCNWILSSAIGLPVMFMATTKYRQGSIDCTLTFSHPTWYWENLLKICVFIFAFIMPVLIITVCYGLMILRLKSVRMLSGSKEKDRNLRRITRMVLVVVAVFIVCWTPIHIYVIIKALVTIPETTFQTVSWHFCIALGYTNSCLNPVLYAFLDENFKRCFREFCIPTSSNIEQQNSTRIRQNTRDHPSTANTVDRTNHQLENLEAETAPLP

[10] = biological target: T4, Kappa-type opioid receptor; test: KOR agonist analogs, arrestin-GFP redistribution, SAR follow-up, imaging, image-based, set 3 (AID 488833); assay type: functional
[11] = biological target: Delta-type opioid receptor (Homo sapiens, UniProt P41143); test: SAR Analysis of Agonists of the DOR Receptor using an Image-Based Assay - Set 3. [Related pubchem assays (depositor defined):AID1777, AID1786]; assay type: functional
Delta-type opioid receptor, sequence (P41143 whole entry): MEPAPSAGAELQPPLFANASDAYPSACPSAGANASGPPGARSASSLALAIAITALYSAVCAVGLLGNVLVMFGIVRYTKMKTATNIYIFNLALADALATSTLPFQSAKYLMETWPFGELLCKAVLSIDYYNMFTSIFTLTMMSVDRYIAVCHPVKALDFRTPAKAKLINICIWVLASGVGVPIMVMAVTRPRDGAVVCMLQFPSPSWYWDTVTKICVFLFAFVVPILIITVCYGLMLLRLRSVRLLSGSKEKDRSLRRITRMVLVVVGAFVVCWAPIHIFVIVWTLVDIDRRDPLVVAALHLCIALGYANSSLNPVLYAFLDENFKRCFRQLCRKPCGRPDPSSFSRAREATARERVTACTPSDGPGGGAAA

[12] = biological target: Intestinal-type alkaline phosphatase (Homo sapiens, UniProt P09923); test: inhibition of human intestinal alkaline phosphatase – biochemical, dose response (AID 488876); assay type: functional
Intestinal-type alkaline phosphatase (Homo sapiens, UniProt P09923), sequence (P09923 whole entry): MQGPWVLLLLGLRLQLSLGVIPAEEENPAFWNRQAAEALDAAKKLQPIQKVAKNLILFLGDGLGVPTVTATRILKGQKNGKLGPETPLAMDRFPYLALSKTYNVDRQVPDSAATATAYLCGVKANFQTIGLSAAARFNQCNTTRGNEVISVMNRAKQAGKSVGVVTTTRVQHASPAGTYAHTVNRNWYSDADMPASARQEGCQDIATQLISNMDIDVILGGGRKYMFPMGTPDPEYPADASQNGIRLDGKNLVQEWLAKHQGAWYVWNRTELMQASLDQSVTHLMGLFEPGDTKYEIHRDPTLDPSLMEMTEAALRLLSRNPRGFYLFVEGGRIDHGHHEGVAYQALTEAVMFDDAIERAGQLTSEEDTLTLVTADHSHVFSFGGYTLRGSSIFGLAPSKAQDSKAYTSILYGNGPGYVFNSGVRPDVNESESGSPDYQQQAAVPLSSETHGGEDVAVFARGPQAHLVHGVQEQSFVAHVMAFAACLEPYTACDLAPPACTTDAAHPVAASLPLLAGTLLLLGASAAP

[13] = biological target: T5, Hexokinase HKDC1 (Homo sapiens, UniProt Q2TB90); test: HKDC1 hexokinase inhibitors, dose response, biochemical, W721R variant (AID 504729); assay type: functional
T5 sequence (Q2TB90 whole entry): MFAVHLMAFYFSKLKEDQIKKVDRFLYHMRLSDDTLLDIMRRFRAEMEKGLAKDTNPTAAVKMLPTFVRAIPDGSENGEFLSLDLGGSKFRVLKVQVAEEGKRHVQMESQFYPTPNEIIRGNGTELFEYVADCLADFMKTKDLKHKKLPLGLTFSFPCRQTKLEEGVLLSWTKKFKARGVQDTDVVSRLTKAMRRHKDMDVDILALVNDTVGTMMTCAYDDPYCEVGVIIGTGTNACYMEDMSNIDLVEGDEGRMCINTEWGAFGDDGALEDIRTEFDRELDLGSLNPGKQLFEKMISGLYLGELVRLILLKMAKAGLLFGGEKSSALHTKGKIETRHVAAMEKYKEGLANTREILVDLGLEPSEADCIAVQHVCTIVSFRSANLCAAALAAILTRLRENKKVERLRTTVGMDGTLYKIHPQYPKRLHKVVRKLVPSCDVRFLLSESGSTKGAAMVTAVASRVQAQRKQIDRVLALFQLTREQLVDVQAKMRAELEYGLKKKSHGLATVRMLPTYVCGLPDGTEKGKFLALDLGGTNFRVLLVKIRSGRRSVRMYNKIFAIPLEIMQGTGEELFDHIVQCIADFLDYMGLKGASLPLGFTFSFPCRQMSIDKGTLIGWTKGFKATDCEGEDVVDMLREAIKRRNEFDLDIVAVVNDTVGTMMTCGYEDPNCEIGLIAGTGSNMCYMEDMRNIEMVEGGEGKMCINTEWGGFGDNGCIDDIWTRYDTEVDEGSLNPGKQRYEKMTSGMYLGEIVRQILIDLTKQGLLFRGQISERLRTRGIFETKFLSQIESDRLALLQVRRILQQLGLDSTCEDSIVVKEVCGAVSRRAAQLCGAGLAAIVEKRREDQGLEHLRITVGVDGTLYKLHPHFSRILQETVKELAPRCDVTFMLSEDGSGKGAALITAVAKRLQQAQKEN

[14] = biological target: Intestinal-type alkaline phosphatase (Mus musculus, UniProt P24822); test: PubChem AID 488785; assay type: functional
Intestinal-type alkaline phosphatase (Mus musculus, UniProt P24822), sequence (P24822 whole entry): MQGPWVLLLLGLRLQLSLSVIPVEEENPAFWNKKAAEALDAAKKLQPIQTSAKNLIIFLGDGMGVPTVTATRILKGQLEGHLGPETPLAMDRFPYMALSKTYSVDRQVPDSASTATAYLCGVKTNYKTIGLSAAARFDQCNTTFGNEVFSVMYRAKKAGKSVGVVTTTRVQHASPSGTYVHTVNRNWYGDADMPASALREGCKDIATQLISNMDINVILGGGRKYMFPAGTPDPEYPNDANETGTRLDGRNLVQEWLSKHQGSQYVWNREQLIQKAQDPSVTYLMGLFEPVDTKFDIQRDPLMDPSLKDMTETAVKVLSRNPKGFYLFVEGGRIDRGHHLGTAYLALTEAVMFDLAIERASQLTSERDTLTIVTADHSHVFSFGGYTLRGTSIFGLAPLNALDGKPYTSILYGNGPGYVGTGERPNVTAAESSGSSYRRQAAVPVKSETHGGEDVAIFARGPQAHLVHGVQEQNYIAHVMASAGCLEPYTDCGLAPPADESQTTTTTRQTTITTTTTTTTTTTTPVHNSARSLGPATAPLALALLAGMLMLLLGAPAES

[15] = biological target: T6, Alkaline phosphatase, tissue-nonspecific isozyme (Homo sapiens, UniProt P05186); test: TNAP enzyme inhibition by screening hits, dose response, selectivity assay for mouse IAP inhibitor project, biochemical, human TNAP, uHTS hits (AID 488906); assay type: functional
T6 sequence (P05186 whole entry): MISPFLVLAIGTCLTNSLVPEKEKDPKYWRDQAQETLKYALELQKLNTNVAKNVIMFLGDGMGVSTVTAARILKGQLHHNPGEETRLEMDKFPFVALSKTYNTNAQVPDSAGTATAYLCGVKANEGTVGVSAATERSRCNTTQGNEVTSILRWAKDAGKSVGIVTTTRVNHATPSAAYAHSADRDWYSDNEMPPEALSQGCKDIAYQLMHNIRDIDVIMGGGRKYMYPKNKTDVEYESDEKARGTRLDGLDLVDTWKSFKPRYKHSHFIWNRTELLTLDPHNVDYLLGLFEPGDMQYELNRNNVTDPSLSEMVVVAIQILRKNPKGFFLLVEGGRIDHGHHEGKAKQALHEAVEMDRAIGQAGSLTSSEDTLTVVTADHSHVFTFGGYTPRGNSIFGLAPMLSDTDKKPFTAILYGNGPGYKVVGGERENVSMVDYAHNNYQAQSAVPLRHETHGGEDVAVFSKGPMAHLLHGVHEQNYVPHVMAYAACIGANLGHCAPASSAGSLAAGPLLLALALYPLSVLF

[16] = cytotoxicity in KRAS-transformed pancreatic duct cells, primary screen, cell-based, fluorescence, HTS (AID 431); assay type: functional; conditions: Homo sapiens;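 also: cell line used: HPDE-C7K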
[17] = biological target: T7, Short transient receptor potential channel 4 (Mus musculus, UniProt Q9QUQ5); test: mouse TRPC4 channel activators, dose response, cell-based, HEK293 TRPC4/mu-opioid, Fluo-4 calcium (AID 434937); assay type: functional
T7 sequence (Q9QUQ5 whole entry): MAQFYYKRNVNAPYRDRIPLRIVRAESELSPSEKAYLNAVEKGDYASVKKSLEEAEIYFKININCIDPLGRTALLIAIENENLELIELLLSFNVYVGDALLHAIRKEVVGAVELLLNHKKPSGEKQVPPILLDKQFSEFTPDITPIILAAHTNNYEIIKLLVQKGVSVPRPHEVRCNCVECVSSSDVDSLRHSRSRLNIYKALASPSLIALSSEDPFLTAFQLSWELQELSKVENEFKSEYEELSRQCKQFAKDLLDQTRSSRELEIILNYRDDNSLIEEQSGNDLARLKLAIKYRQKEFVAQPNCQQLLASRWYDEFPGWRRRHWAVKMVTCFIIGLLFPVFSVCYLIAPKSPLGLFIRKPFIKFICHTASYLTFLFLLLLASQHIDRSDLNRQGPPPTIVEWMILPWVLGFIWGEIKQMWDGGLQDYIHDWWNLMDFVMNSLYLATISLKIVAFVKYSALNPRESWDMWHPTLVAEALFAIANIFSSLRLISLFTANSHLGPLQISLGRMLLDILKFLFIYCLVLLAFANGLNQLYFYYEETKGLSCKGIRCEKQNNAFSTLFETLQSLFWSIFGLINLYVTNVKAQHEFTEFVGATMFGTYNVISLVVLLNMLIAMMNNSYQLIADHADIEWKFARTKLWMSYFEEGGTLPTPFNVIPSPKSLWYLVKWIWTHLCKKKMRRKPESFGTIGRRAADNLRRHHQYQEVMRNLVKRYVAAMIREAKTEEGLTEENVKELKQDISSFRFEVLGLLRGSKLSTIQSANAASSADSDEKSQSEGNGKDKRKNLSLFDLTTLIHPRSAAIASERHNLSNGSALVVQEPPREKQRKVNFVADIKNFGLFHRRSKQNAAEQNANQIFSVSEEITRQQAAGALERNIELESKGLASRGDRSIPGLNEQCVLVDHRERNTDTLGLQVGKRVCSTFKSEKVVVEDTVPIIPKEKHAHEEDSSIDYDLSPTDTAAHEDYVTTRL

[18] = biological target: Sphingosine 1-phosphate receptor 1 (Homo sapiens, UniProt P21453); test: Fluorescence-based counterscreen assay for S1P4 agonists: Cell-based dose response high throughput screening assay to identify agonists of the Sphingosine 1-Phosphate Receptor 1 (S1P1). [Related pubchem assays (depositor defined):AID1509, AID1523, AID1801, AID463107, AID463118, AID463119, AID463122, AID463123, AID463129, AID463225, AID504400, AID504460]; assay type: functional
[19] = biological target: Sphingosine 1-phosphate receptor 2 (Homo sapiens, UniProt O95136); test: Dose Response Cell Based Assay for Agonists of the S1P2 Receptor. [Related pubchem assays: 729, 736, 843 ]; assay type: functional
[20] = cytotoxicity in HPDE-C7 cells, cell-based, fluorescence, HTS (AID 430); assay type: functional; conditions: Homo sapiens
[21] = biological target: Sphingosine 1-phosphate receptor 4 (Homo sapiens, UniProt O95977); test: Fluorescence dose response cell-based high throughput screening assay for agonists of the Sphingosine 1-Phosphate Receptor 4 (S1P4). [Related pubchem assays: 1509 (Primary screen.), 1523 (Confirmation screen in triplicates.)]; assay type: functional
Sphingosine 1-phosphate receptor 4, sequence (O95977 whole entry): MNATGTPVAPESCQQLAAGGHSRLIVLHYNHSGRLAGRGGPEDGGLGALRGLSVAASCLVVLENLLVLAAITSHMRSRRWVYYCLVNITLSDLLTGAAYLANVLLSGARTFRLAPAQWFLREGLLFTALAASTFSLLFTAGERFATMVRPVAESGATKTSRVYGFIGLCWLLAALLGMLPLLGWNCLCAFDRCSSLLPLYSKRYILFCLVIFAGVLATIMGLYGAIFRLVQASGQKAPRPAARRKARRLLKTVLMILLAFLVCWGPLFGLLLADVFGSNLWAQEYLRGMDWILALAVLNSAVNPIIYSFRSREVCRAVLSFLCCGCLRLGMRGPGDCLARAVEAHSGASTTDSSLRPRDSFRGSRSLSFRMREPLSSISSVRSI

[22] = biological target: Lysine-specific demethylase 4A (Homo sapiens, UniProt O75164); test: JMJD2A histone demethylase inhibitors, dose response, selectivity assay for GASC-1 inhibitor project, biochemical, DELFIA europium, cherry-picked samples (AID 488840)
Lysine-specific demethylase 4A, sequence (O75164 whole entry): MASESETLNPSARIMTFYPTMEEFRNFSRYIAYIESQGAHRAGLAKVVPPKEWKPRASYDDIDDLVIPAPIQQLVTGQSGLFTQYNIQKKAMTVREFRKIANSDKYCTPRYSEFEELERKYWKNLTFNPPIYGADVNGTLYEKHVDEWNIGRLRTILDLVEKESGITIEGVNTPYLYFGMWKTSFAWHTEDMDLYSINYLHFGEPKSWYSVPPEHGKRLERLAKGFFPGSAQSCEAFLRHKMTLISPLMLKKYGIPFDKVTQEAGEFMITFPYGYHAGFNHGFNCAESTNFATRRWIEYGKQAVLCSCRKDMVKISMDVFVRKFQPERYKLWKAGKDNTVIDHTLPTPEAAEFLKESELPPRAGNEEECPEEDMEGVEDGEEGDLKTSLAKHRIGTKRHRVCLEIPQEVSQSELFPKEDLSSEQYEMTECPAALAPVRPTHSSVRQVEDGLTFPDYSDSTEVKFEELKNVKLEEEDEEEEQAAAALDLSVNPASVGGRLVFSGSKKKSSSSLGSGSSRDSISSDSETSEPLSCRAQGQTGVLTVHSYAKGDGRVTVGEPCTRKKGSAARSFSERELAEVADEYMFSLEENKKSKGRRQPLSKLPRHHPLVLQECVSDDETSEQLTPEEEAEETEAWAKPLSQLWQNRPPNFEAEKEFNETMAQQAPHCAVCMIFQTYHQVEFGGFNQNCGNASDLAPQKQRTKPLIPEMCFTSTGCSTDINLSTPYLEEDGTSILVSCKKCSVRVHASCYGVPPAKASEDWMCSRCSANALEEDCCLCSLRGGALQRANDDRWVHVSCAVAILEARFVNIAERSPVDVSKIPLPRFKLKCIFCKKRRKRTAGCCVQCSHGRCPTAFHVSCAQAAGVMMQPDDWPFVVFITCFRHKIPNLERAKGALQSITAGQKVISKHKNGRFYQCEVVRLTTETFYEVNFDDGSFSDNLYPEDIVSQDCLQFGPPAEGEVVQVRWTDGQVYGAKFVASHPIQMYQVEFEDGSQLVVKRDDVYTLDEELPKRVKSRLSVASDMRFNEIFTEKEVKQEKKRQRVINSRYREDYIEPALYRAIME

Structure (SMILES): C=CCN(CC=C)S(=O)(=O)c1ccc(NC(=S)NC(=O)c2ccc(-c3ccccc3)cc2)cc1
IC50 [1]: > 100 µM (inactive)
EC50 [2]: 0.2 µM (active)
IC50 [3]: > 32 µM (inactive)
EC50 [4]: > 32 µM (inactive)
IC50 [5]: > 100 µM (inactive)
EC50 [6]: < 0.5 µM (active)
IC50 [7]: > 32 µM (inactive)

Structure (SMILES): N#Cc1ccc(CSc2nnc(-c3ccccn3)n2Cc2cccs2)cc1
EC50 [8]: 4.64 µM (active)
EC50 [9]: > 32 µM (inactive)
EC50 [10]: 3.52 µM (active)
EC50 [11]: > 64 µM (inactive)

Structure (SMILES): Clc1ccc2nc(N3CCNCC3)nc(-c3ccccc3)c2c1
EC50 [16]: 4.64 µM (active)
EC50 [17]: 5.96 µM (active)
EC50 [18]: > 49.8 µM (inactive)
EC50 [19]: 1.34 µM (active)
EC50 [20]: 8.03 µM (active)
EC50 [21]: > 49.8 µM (not active)

Next, values leading:

IC50 [12]: 23.6 µM (active)
IC50 [13]: 13.2 µM (active)
IC50 [14]: 9.28 µM (active)
IC50 [15]: 21.2 µM (active)
Structure (SMILES): NS(=O)(=O)c1ccc(N/N=C2\C(=O)Nn3c2nc2c(c3=O)CCCC2)cc1

AC50 [22]: 3.73 µM (active)
Structure (SMILES): CCC(C(=O)NCCCc1ccccc1)c1ccccc1 (configuration not stated)
